{"source": "patent US20110251135A1", "about": "“INHIBITORS OF PERITONEAL SEEDING OF CANCER CELLS” (University of Utah Research Foundation, priority 2008, published 2011)", "key": {"[1]": {"tested_on": "TRAF-1 and TRAF-2", "test": "Immunoblot of anti-apoptotic proteins in HT-29 cells", "assay_type": "cell-based, human", "conditions": "20 μM for 8 hours", "protocol": "(§1) The data points represent the means of triplicate experiments and the error bars the standard errors of the means. […] The percent of apoptotic cells was then determined by the annexin V assay. […] The results shown are typical of two separate experiments. […] Immunoblots were performed for c-IAP-2, TRAF-1, TRAF-2, and FLIP. All lanes contain equal total protein.\n(§2) The cells were washed twice in ice cold PBS and then lysed in 4° C. lysis buffer (50 mM HEPES, 150 mM NaCl, 1.5 mM MgCl2, 1 mM EGTA, 100 mM NaF, 10 mM Na2PO4, 1 mM Na3VO4, 10% glycerol, 1% TRITON™ X-100, and 1 μg/mL each of aprotinin, leupeptin, chymostatin, pepstatin) and clarified at 12,000 rpm at 4° C. for 15 minutes. The lysates were normalized for total protein concentration. Aliquots of the lysates were then mixed 1:1 in sample buffer (125 mM Tris-HCl (pH 6.8), 20% glycerol, 4% sodium dodecyl sulfate, 2% β-mercaptoethanol, 10 μg/mL bromophenol blue) and boiled for 3 minutes. The samples were loaded onto SDS-PAGE gels (7.5 or 10% acrylamide). […]\n(§3) For immunodetection, the blocked blots were probed with primary antibody for 2 hours at 4° C. on a rocker. […] Alkaline phosphatase was detected by a colorimetric reaction using a BCIP (5-bromo-4-chloro-3-indolyl phosphate)/NBT (nitroblue tetrazolium) kit (Zymed)."}, "[2]": {"tested_on": "c-IAP-1", "test": "Immunoblot of anti-apoptotic proteins in HT-29 cells", "assay_type": "cell-based, human", "conditions": "transiently suspended or adherent HT-29; 20 μM for 8 hours", "protocol": "as §1, §2, §3"}, "[3]": {"tested_on": "HCT-116 cells transfected with human c-FLIP or empty vector", "test": "Annexin V-FITC assay, readhesion of HCT-116 cells transfected with human c-FLIP or empty vector", "assay_type": "cell-based", "conditions": "readhesion 8 hours", "protocol": "Since HCT-116 colon cancer cells have relatively low levels of FLIP compared with other cancer cell lines (FIG. 13A), they were transfected with human c-FLIP. HCT-116 cells that were transfected with human c-FLIP or empty vector were transiently suspended and allowed to readhere in the presence of BAY 11-7085 for 8 hours. […] Thus, FLIP appears to be an important target of BAY 11-7085 and is able to inhibit BAY 11-7085-mediated apoptosis during colon cancer cell readhesion."}, "[4]": {"tested_on": "transiently suspended HT-29 cells", "test": "Apoptosis of transiently suspended cells during readhesion (annexin V assay)", "assay_type": "cell-based, human", "protocol": "HT-29 cells that were either transiently suspended with trypsin-EDTA or adherent for three days, were treated at time zero with DMSO or 10-100 μM BAY 11-7085. The percent of apoptotic cells was determined using the annexin V flow cytometry assay and graphed versus the dose of BAY 11-7085. FIG. 4B are photographs showing DLD-1, FIG. 4C are photographs showing HCT-116, and FIG. 4D are photographs showing HT-29 cells that were transiently suspended in trypsin-EDTA and allowed to readhere to glass coverslips for 1-24 hours. The cells were fixed and immunostained with an NF-κB p65 subunit monoclonal antibody.\nThe transiently suspended cells were lysed and allowed to bind to DNA oligonucleotides, containing the NF-κB consensus binding site, that were immobilized to 96-well plates. NF-κB protein bound to the oligonucleotides was detected by an antibody to the p65 subunit that only recognized p65 that is bound to DNA. The positive control was HeLa cells that were stimulated with TNFα. A control was performed using excess free NF-κB oligonucleotides (Competitor). […] NF-κB binding activity was determined by the TransAM assay as in FIG. 5A. […] The data shown represent typical results of three separate experiments. […] An immunoblot for COX-2 was performed.\nThe percentage of apoptotic cells was determined using the annexin V assay. The data points represent the averages of three experiments; bars, +−.SE. E. DLD-1 and F. HT-29 cells were transduced with an adenovirus containing the IκB super-repressor construct. After 3 days, the cells were transiently suspended and allowed to readhere in the presence of subapoptotic concentrations of BAY 11-7085 or DMSO (vehicle) for 8 hours. The data are expressed as fractions of cells surviving compared with the controls (no adenovirus) and were quantitatively determined by staining the remaining adherent cells with crystal violet.\nSingle cell suspensions were plated at 100,000 cells per well in 24-well plates in media containing DMSO, BAY 11-7082, BAY 11-7085, or MG-132 for 8-24 hours in an incubator. Alternatively, DMSO, BAY 11-7082, BAY 11-7085, or MG-132 were added to cells that were confluent and adherent for several days. The nonadherent cells were aspirated off with the media and spun for 3 minutes at 2,000 rpm in 15 mL polypropylene tubes. The adherent cells were washed twice with PBS, dispersed in trypsin, and spun down for 3 minutes at 2,000 rpm in 15 mL polypropylene tubes. The nonadherent and adherent cells were resuspended in 1× binding buffer (10 mM HEPES/NaOH, pH 7.4, 140 mM NaCl, and 2.5 mM CaCl2) to a final concentration of 10^6 cells/mL. 100 μL of the cell solution were transferred to a 5 mL culture tube and incubated with 5 μL of annexin V-FITC-conjugated monoclonal antibody (Pharmingen) and 10 μl, of propidium iodide (from a 50 μg/mL stock solution made in PBS) in the dark at 25° C. for 15 minutes. 400 μL of binding buffer was added to each tube and the cells were analyzed by flow cytometry immediately. The percent of apoptosis was determined as the percent of annexin V-positive, propidium iodide-negative cells of the total cells counted.\nVarious concentrations of BAY 11-7085 were added to HT-29 cells that were transiently suspended in trypsin-PBS for approximately 15 minutes before replating. The transiently suspended cells were quickly allowed to readhere in order to prevent anoikis. Alternatively, BAY 11-7085 was added to adherent HT-29 cell monolayers."}, "[5]": {"tested_on": "FLIP", "test": "FLIP immunoblot in HT-29 cells", "assay_type": "cell-based, human", "protocol": "as §1\nThe cells were washed twice in ice cold PBS and then lysed in 4° C. lysis buffer (50 mM HEPES, 150 mM NaCl, 1.5 mM MgCl2, 1 mM EGTA, 100 mM NaF, 10 mM Na2PO4, 1 mM Na3VO4, 10% glycerol, 1% TRITON™ X-100, and 1 μg/mL each of aprotinin, leupeptin, chymostatin, pepstatin) and clarified at 12,000 rpm at 4° C. for 15 minutes. The lysates were normalized for total protein concentration. […]\nas §3\nSince HCT-116 colon cancer cells have relatively low levels of FLIP compared with other cancer cell lines (FIG. 13A), they were transfected with human c-FLIP. HCT-116 cells that were transfected with human c-FLIP or empty vector were transiently suspended and allowed to readhere in the presence of BAY 11-7085 for 8 hours. […]"}}, "data": [{"smiles": "CC(C)(C)c1ccc(S(=O)(=O)/C=C/C#N)cc1", "note": "[BAY 11-7085, (2E)-3-[4-(tertiarybutylphenyl)sulfonyl]-2-propenenitrile]", "values": [{"measurement": "TRAF-1 and TRAF-2 protein expression", "setting": "[1]", "result": "decrease in the protein expression of both TRAF-1 and TRAF-2 proteins"}, {"measurement": "c-IAP-1 protein expression", "setting": "[2]", "result": "No decrease in c-IAP-1 protein expression"}, {"measurement": "apoptosis (Annexin V-FITC assay)", "setting": "[3]; HCT-116 over-expressing FLIP", "result": "much more resistant to BAY 11-7085"}, {"measurement": "apoptosis (Annexin V-FITC assay)", "setting": "[3]; control (empty vector) HCT-116", "result": "induced apoptosis"}, {"measurement": "BAY 11-7085-induced apoptosis during readhesion", "setting": "[4]; HT-29 transiently suspended, treated and allowed to readhere, 8 hours", "result": "showed the same propensity for BAY 11-7085-induced apoptosis"}, {"measurement": "apoptosis of transiently suspended HT-29 cells", "setting": "[4]; all concentrations tested (10-100 μM), cells suspended in trypsin-PBS then replated", "result": "caused a significant increase in apoptosis"}, {"measurement": "expression of the 54 kilodalton (long) isoform of FLIP", "setting": "[5]; adherent HT-29, 20 μM", "result": "only a slight diminution"}, {"measurement": "FLIP expression in readhering HT-29 cells", "setting": "[5]; readhering HT-29, 3 hours", "result": "caused the down-regulation of FLIP after only 3 hours"}]}]}
